For experiment [1], the system named is pSer473 Akt in A2780 cells. Put plainly: pSer473 Akt assay to monitor PI3K pathway in A2780 cells (Biological Method 2, MSD). It counts as cell-based. As to conditions: Homo sapiens; inhibition of Akt phosphorylation, A2780 cells. The procedure, abridged:
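A2780 ovarian cancer cells in DMEM/10% FBS were treated with compound for 1 h at 37 °C, then lysed. pSer473-Akt and total Akt were measured by MSD electrochemiluminescence immunoassay. The pSer473/total Akt ratio gave % inhibition versus DMSO, from which EC50 was derived.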

The next experiment has as its target PI3 kinase alpha (Homo sapiens, UniProt P42336). The experiment can be described thus: PI3K ATP depletion assay (Biological Method 1, Assay 3; KinaseGlo luminescence). Format: biochemical. Conditions: ATP depletion assay; read-out: PI3 Kinase Alpha, IC50. The procedure, abridged:
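Compound in DMSO was mixed with 10 nM PI3 kinase and 5 μg/mL phosphatidylinositol, and the reaction was started with 2 μM ATP. It ran to about 50% ATP depletion and was stopped with KinaseGlo.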

The subject of experiment [2] is A2780 ovarian cancer cells. The experiment can be described thus: Cellular proliferation in A2780 cells, Cell Titer Glo (Biological Method 4). Format: cell-based. Conditions: Homo sapiens; ovarian cancer cell line A2780. Summed up:
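Viability after 72 h compound exposure (37 °C, 5% CO2) was read by Cell Titer Glo and an EC50 derived, each condition in duplicate. A2780 ovarian cells had been plated at 1,000 per well in DMEM/10% FBS at least 2 h beforehand.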
(In general: Cellular ATP, detected with luciferase, serves as a proxy for viable cell number.)

The text below walks through data of patent publication US8217035B2, “Pyrimidine derivatives used as PI-3-kinase inhibitors” (Novartis AG, priority 2006, dated 2012).

Sequence of PI3 kinase alpha (P42336 whole entry): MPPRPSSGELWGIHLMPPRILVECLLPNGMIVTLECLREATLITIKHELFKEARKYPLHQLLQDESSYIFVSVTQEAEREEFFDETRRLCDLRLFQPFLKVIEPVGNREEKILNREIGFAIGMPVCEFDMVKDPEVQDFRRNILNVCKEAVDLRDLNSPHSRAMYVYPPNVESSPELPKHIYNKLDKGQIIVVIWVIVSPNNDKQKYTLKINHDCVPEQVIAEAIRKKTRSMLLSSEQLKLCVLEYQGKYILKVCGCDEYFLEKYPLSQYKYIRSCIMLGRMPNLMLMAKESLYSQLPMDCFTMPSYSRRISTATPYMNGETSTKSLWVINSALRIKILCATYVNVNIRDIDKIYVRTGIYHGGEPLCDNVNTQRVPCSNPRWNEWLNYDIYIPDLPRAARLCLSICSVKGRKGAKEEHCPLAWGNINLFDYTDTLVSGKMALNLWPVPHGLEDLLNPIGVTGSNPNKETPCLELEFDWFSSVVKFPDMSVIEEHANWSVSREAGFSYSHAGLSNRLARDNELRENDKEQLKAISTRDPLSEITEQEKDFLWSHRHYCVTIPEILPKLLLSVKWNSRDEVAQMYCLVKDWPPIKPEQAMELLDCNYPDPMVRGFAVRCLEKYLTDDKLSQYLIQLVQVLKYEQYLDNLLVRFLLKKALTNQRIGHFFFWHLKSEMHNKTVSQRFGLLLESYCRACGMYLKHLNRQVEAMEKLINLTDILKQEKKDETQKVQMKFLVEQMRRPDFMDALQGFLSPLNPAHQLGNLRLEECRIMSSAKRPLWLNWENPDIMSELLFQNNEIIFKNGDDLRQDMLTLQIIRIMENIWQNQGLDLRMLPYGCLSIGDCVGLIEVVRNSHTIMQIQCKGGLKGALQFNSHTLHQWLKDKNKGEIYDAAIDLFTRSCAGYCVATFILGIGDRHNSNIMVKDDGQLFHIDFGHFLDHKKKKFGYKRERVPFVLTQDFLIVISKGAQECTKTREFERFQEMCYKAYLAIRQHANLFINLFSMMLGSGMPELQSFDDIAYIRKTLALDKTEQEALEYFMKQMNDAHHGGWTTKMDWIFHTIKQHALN
Sequence of PI3 kinase alpha (P27986 whole entry partner): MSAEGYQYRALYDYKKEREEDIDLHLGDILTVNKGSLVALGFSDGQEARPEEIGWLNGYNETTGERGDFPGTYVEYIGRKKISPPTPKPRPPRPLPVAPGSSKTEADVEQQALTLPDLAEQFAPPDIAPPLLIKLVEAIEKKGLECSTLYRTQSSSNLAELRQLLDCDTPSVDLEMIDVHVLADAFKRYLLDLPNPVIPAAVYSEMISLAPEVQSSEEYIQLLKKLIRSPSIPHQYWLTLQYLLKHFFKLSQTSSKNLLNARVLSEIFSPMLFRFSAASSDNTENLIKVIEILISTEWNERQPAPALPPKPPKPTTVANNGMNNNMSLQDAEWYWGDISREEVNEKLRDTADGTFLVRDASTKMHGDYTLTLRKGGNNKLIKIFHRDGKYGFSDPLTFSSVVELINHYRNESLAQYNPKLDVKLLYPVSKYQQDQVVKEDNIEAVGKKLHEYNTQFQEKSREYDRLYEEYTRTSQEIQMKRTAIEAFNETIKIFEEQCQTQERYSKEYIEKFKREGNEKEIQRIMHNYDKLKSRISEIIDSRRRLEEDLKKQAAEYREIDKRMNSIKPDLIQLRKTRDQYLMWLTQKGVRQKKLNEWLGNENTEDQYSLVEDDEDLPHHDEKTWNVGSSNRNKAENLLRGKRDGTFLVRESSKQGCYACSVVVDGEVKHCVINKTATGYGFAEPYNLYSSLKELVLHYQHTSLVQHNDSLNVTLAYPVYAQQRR

Turning to `CC(C)OC(=O)N1CCC(Oc2cc(-c3cnc(N)nc3N)nc(N3CCOCC3)n2)CC1` [Compound 131], the EC50 in experiment [1] and in experiment [2] was less than 1 µM in each case. In addition, the IC50 – broadly, the concentration that gives 50% inhibition – at PI3 kinase alpha was less than 1 µM.
Consider `CC(C)C(=O)N1CCC(Oc2cc(-c3cnc(N)nc3N)nc(N3CCOCC3)n2)CC1` [Compound 134], for which the EC50 in experiment [1] and in experiment [2] was less than 1 µM each time. In addition, the IC50 at PI3 kinase alpha was less than 1 µM.
Regarding `Nc1ncc(-c2cc(Nc3ccc4cn[nH]c4c3)nc(N3CCOCC3)n2)cn1` [Compound 135], the EC50 in experiment [1] and in experiment [2] was less than 1 µM throughout. In addition, the IC50 on PI3 kinase alpha was less than 1 µM.
Turning to `CS(=O)(=O)Nc1ncccc1-c1cc(-c2cnc(N)cc2C#N)nc(N2CCOCC2)n1` [Compound 136], the EC50 in experiment [1] and in experiment [2] was less than 1 µM each time. Also, the IC50 on PI3 kinase alpha is less than 1 µM.
As for `CC(C)C(=O)N1CCC[C@@H](Oc2cc(-c3cnc(N)nc3N)nc(N3CCOCC3)n2)C1` [Compound 137], the EC50 (in general, the concentration giving half of the maximal effect) in experiment [1] is less than 1 µM; in experiment [2], less than 10 µM. The IC50 at PI3 kinase alpha is less than 1 µM.
For the compound `Nc1cc(C(F)(F)F)c(-c2cc(-c3nccs3)nc(N3CCOCC3)n2)cn1` [Compound 138], the EC50 in experiment [1] was less than 1 µM; in experiment [2], less than 10 µM. Besides, the IC50 on PI3 kinase alpha was less than 1 µM.
For `CS(=O)(=O)c1cccc(Nc2cc(-c3ccc(N)nc3)nc(N3CCOCC3)n2)c1` [Compound 139], the values for the EC50 in experiment [1] and in experiment [2] were less than 1 µM and less than 10 µM, respectively. The IC50 on PI3 kinase alpha is less than 1 µM.
For `COc1cccc2ncc(Nc3cc(-c4cnc(N)cc4C(F)(F)F)nc(N4CCOCC4)n3)cc12` [Compound 140], the EC50 was less than 1 µM in experiment [1] and less than 10 µM in experiment [2]. Further, the IC50 at PI3 kinase alpha was less than 1 µM.
`CS(=O)(=O)c1ccccc1Nc1cc(-c2ccc(N)nc2)nc(N2CCOCC2)n1` [Compound 141]: the EC50 in experiment [1] is less than 1 µM; in experiment [2] it was less than 10 µM. Moreover, the IC50 on PI3 kinase alpha was less than 1 µM.
Turning to `Nc1ccc(-c2cc(Nc3ccncc3C(F)(F)F)nc(N3CCOCC3)n2)cn1` [Compound 142], the concentration giving a half-maximal response (EC50) in experiment [1] and in experiment [2] was less than 1 µM throughout. Further, the IC50 on PI3 kinase alpha is less than 1 µM.
`CS(=O)(=O)c1cccc(-c2cc(-c3cnc(N)nc3C(F)(F)F)nc(N3CCOCC3)n2)c1` [Compound 143]: the concentration giving a half-maximal response (EC50) in experiment [1] and in experiment [2] was less than 1 µM throughout. The IC50 on PI3 kinase alpha is less than 1 µM.
As for `N#Cc1cnc(Nc2cc(-c3cnc(N)cc3C(F)(F)F)nc(N3CCOCC3)n2)s1` [Compound 144], the EC50 in experiment [1] was less than 1 µM; in experiment [2] it was less than 10 µM. Also, the IC50 at PI3 kinase alpha was less than 1 µM.
For `CS(=O)(=O)Nc1ncccc1-c1cc(-c2cnc(N)cc2C(F)(F)F)nc(N2CCOCC2)n1` [Compound 145], the results for the EC50 in experiment [1] and in experiment [2] were less than 1 µM and less than 10 µM, respectively. The IC50 on PI3 kinase alpha was less than 1 µM.
`COc1ccnc(Nc2cc(-c3ccc(N)nc3)nc(N3CCOCC3)n2)c1` [Compound 148]: the EC50 is less than 1 µM in experiment [1] and less than 25 µM in experiment [2]. The IC50 at PI3 kinase alpha was less than 1 µM.
In the case of `CS(=O)(=O)c1ccc2cc(Nc3cc(-c4ccc(N)nc4)nc(N4CCOCC4)n3)cnc2c1` [Compound 149], the figures for the EC50 in experiment [1] and in experiment [2] were less than 1 µM and less than 10 µM, respectively. In addition, the IC50 at PI3 kinase alpha is less than 1 µM.
On to `Nc1cc(C(F)(F)F)c(-c2cc(Nc3ccc(OC4CCNCC4)nc3)nc(N3CCOCC3)n2)cn1` [Compound 150], for which the EC50 in experiment [1] and in experiment [2] was less than 1 µM each time. Besides, on PI3 kinase alpha, the IC50 is less than 1 µM.
As for `N#Cc1ccnc(Nc2cc(-c3ccc(N)nc3)nc(N3CCOCC3)n2)c1` [Compound 152], the EC50 in experiment [1] was less than 1 µM; in experiment [2], less than 10 µM. The IC50 at PI3 kinase alpha is less than 1 µM.
`Nc1cc(C(F)(F)F)c(-c2cc(Nc3ccncc3C(F)(F)F)nc(N3CCOCC3)n2)cn1` [Compound 153]: the EC50 in experiment [1] and in experiment [2] was less than 1 µM each time. In addition, at PI3 kinase alpha, the IC50 is less than 1 µM.
Take `COc1ccc2ncc(Nc3cc(-c4cnc(N)nc4C)nc(N4CCOCC4)n3)cc2c1` [Compound 154]: the EC50 in experiment [1] and in experiment [2] was less than 1 µM in each case. Further, the IC50 on PI3 kinase alpha was less than 1 µM.
For `Nc1ccc(-c2cc(Nc3ccnc(Cl)c3)nc(N3CCOCC3)n2)cn1` [Compound 155], the figures for the 50% effective concentration (EC50) in experiment [1] and in experiment [2] were less than 1 µM and less than 10 µM, respectively. At PI3 kinase alpha, the concentration for half-maximal inhibition (IC50) was less than 1 µM.
As for `COc1cccc2ncc(Nc3cc(-c4ccc(N)nc4)nc(N4CCOCC4)n3)cc12` [Compound 156], the EC50 in experiment [1] and in experiment [2] was less than 1 µM throughout. In addition, the concentration for half-maximal inhibition (IC50) at PI3 kinase alpha was less than 1 µM.
Consider `CS(=O)(=O)Nc1nc2ccccc2cc1-c1cc(-c2ccc(N)nc2)nc(N2CCOCC2)n1` [Compound 157], for which the EC50 in experiment [1] was less than 1 µM; in experiment [2], less than 25 µM. Also, the half-maximal inhibitory concentration (IC50) on PI3 kinase alpha is less than 1 µM.
`Nc1ncc(-c2cc(Nc3ccncc3C(F)(F)F)nc(N3CCOCC3)n2)c(C(F)(F)F)n1` [Compound 158]: the EC50 in experiment [1] and in experiment [2] was less than 1 µM throughout. For the same compound, at PI3 kinase alpha, the IC50 is less than 1 µM.
With `CS(=O)(=O)Nc1ccccc1-c1cc(-c2cnc(N)cc2C(F)(F)F)nc(N2CCOCC2)n1` [Compound 159], the concentration for a half-maximal effect (EC50) is less than 1 µM in experiment [1] and less than 10 µM in experiment [2]. For the same compound, the IC50 on PI3 kinase alpha is less than 1 µM.
Consider `COc1nc(N)ncc1-c1cc(Nc2cnc3ccccc3c2)nc(N2CCOCC2)n1` [Compound 161], for which the EC50 in experiment [1] and in experiment [2] was less than 1 µM in each case. In addition, the IC50 on PI3 kinase alpha is less than 1 µM.
Regarding `Nc1ccc(-c2cc(Nc3cccc(-c4cnco4)c3)nc(N3CCOCC3)n2)cn1` [Compound 163], the EC50 was less than 1 µM in experiment [1] and less than 10 µM in experiment [2]. The IC50 at PI3 kinase alpha was less than 1 µM.
Consider `Nc1ncc(-c2cc(Nc3ccc4c(c3)OCCO4)nc(N3CCOCC3)n2)c(C(F)(F)F)n1` [Compound 164], for which the EC50 in experiment [1] and in experiment [2] was less than 1 µM throughout. On PI3 kinase alpha, the IC50 was less than 1 µM.
With `CS(=O)(=O)c1cccc(-c2cc(-c3cnc(N)cc3Cl)nc(N3CCOCC3)n2)c1` [Compound 165], the EC50 in experiment [1] and in experiment [2] was less than 1 µM each time. Further, on PI3 kinase alpha, the IC50 was less than 1 µM.
As to `NC(=O)c1cccc(Nc2cc(-c3ccc(N)nc3)nc(N3CCOCC3)n2)c1` [Compound 166], the results for the EC50 in experiment [1] and in experiment [2] were less than 1 µM and less than 10 µM, respectively. Also, the IC50 on PI3 kinase alpha is less than 1 µM.
Regarding `CC(C)OC(=O)N1CCC[C@H](Oc2cc(-c3cnc(N)nc3N)nc(N3CCOCC3)n2)C1` [Compound 167], the EC50 was less than 1 µM in experiment [1] and less than 10 µM in experiment [2]. The IC50 at PI3 kinase alpha was less than 1 µM.
With `Nc1ccc(-c2cc(-n3ncc4c(N)cccc43)nc(N3CCOCC3)n2)cn1` [Compound 168], the EC50 in experiment [1] and in experiment [2] was less than 1 µM each time. Further, at PI3 kinase alpha, the IC50 was less than 1 µM.
Turning to `Nc1ccc(-c2cc(Nc3cnc4ccccc4c3)nc(N3CCOCC3)n2)c(F)n1` [Compound 169], the EC50 in experiment [1] and in experiment [2] was less than 1 µM each time. For the same compound, the IC50 at PI3 kinase alpha was less than 1 µM.
On to `CS(=O)(=O)Nc1ncccc1-c1cc(-c2cnc(N)cc2Cl)nc(N2CCOCC2)n1` [Compound 170], for which the EC50 in experiment [1] and in experiment [2] was less than 1 µM in each case. Moreover, the concentration for half-maximal inhibition (IC50) on PI3 kinase alpha is less than 1 µM.
Regarding `Cn1cnnc1-c1cccc(Nc2cc(-c3cnc(N)cc3C(F)(F)F)nc(N3CCOCC3)n2)c1` [Compound 171], the EC50 in experiment [1] and in experiment [2] was less than 1 µM throughout. Further, at PI3 kinase alpha, the 50% inhibitory concentration (IC50) was less than 1 µM.
For `CC(=O)c1ccccc1Nc1cc(-c2ccc(N)nc2)nc(N2CCOCC2)n1` [Compound 172], the figures for the EC50 in experiment [1] and in experiment [2] were less than 1 µM and less than 10 µM, respectively. For the same compound, on PI3 kinase alpha, the IC50 is less than 1 µM.
On to `CS(=O)(=O)c1ccc(Nc2cc(-c3cnc(N)cc3C(F)(F)F)nc(N3CCOCC3)n2)cc1` [Compound 173], for which the concentration giving a half-maximal response (EC50) is less than 1 µM in experiment [1] and less than 10 µM in experiment [2]. Also, the IC50 at PI3 kinase alpha is less than 1 µM.
Take `CC(=O)c1cccc(Nc2cc(-c3ccc(N)nc3)nc(N3CCOCC3)n2)c1` [Compound 174]: the EC50 is less than 1 µM in experiment [1] and less than 10 µM in experiment [2]. Further, the IC50 at PI3 kinase alpha was less than 1 µM.
Consider `Nc1ncc(-c2cc(OC3CCN(C(=O)OCc4ccccc4)CC3)nc(N3CCOCC3)n2)c(C(F)(F)F)n1` [Compound 176], for which the half-maximal effective concentration (EC50) in experiment [1] was less than 1 µM; in experiment [2] it was less than 10 µM. Also, the IC50 at PI3 kinase alpha was less than 1 µM.
On to `COc1ccc2ncc(Nc3nc(N4CCOCC4)nc(-c4cnc(N)nc4)c3C)cc2c1` [Compound 177], for which the EC50 in experiment [1] and in experiment [2] was less than 1 µM throughout. Moreover, the 50% inhibitory concentration (IC50) at PI3 kinase alpha is less than 1 µM.
On to `CCOc1cc(Nc2cc(-c3cnc(N)cc3C(F)(F)F)nc(N3CCOCC3)n2)ccn1` [Compound 178], for which the EC50 was less than 1 µM in experiment [1] and less than 10 µM in experiment [2]. Besides, at PI3 kinase alpha, the IC50 is less than 1 µM.
For `N#Cc1ccc(Nc2cc(-c3ccc(N)nc3)nc(N3CCOCC3)n2)cc1` [Compound 179], the EC50 is less than 1 µM in experiment [1] and less than 10 µM in experiment [2]. In addition, the IC50 on PI3 kinase alpha was less than 1 µM.
With `Nc1ccc(-c2cc(Nc3ccccc3N3CCOCC3)nc(N3CCOCC3)n2)cn1` [Compound 180], the values for the EC50 in experiment [1] and in experiment [2] were less than 1 µM and less than 10 µM, respectively. The IC50 at PI3 kinase alpha was less than 1 µM.
For `Nc1ccc(-c2cc(Nc3cnc4ccc(OCCN5CCCC5)cc4c3)nc(N3CCOCC3)n2)cn1` [Compound 181], the EC50 in experiment [1] and in experiment [2] was less than 1 µM in each case. The IC50 on PI3 kinase alpha is less than 1 µM.
